From patent publication US11819537B2, “Preventive or therapeutic method for inflammatory skin disease” (Osaka University, priority 2016, dated 2023)

What was measured:
[1] = test system: TLR7/8 signals (THP-1 cells); assay: IL-6 secretion from macrophage cells stimulated with R848 (Example 3); assay type: cell-based, human; settings: for TLR7/8 signal suppression effects, MHP1 compared with hMHP4: 30.5 μM each; for TLR7/8 signal suppression effects, MHP1 compared with hMHP4 / increase in the amount of IL-6 secretion by R848: FIG. 6; for TLR7/8 signals / increase in the amount of IL-6 secretion by R848: R848 10 μg/ml; for TLR7/8 signals: conclusion from FIG. 6; for increase in the amount of IL-6 secretion by R848: peptide 30.5 μM, 24 hours, ELISA
Experimental: The influence of the RANKL peptide on the amount of proinflammatory cytokines (IL-6) secreted from macrophage cells by the stimulation of a TLR7/8 ligand (R848) was examined. The specific examination procedures were as follows.
THP-1 cells (human-derived macrophage cell line) were cultured in a DMEM medium (+4% FBS) containing MHP1 or hMHP4 (final concentration: 30.5 μM) and R848 (final concentration: 10 μg/ml) or a DMEM medium (+4% FBS) containing R848 (final concentration: 10 μg/ml) alone for 24 hours by a standard method. After culturing, the concentration of IL-6 in the medium was measured by the ELISA method.

[2] = test system: psoriatic symptoms caused by the administration of imiquimod (IMQ); assay: Imiquimod-induced psoriatic symptoms in mice, MHP4 hydrophilic petrolatum ointment (Example 8); assay type: in vivo; settings: MHP4 hydrophilic petrolatum ointment 375 ng/15 mg per mouse applied every day; 5% imiquimod; BALB/c male mice; FIGS. 11 to 14
Experimental: Specifically, the following procedure was performed according to the dosing schedule shown in FIG. 1 except that the first application of an ointment was performed 6 hours after the first imiquimod application. In Example 1, the RANKL peptide aqueous solution was administered, while a RANKL peptide ointment was administered in this example. As test animals, BALB/c 9-week-old male mice whose back hair was partially removed were prepared. 5% imiquimod (IMQ) was applied to the hair-removed portion in the back and ear of each mouse (62.5 mg per mouse) (day 0 (0 d)). 6 hours later, (1) an MHP4 hydrophilic petrolatum ointment (375 ng (MHP4)/15 mg (hydrophilic petrolatum) per mouse, n=2), hydrophilic petrolatum (control (untreated), n=2), or MCT/BBP (Marduox (tradename) ointment) (15 mg per mouse, n=2) was individually applied to the back and ear. Thereafter, imiquimod and item (1) above were applied every day (from day 1 (1 d)). […] The degree of redness in the back, the degree of white scaling in the back, and the degree of skin thickening in the back were quantified according to the description in the document (van der Fits, L. et al. Imiquimod-induced psoriasis-like skin inflammation in mice is mediated via the IL-23/IL-17 axis. J. Immunol. 182, 5836-45 (2009) (evaluation criteria: none (0), mild (1), moderate (2), severe (3), and very severe (4)). FIGS. 12 to 14 show the results.

[3] = test system: TLR7/8 signals (MG6 cells); assay: Proinflammatory cytokine secretion from microglial cells stimulated with R848 (Example 2); assay type: cell-based, mouse; settings: R848 1 μg/ml; for increase in the amount of IL-6 secretion by R848: MHP4 7.6, 15.3 or 30.5 μM, FIG. 5a, 5c; for TLR7/8 signals: conclusion from FIG. 5
Experimental: The influence of the RANKL peptide on the amount of proinflammatory cytokines (IL-6 and TFNα) secreted from microglial cells by the stimulation of imidazoquinoline resiquimod (R848 produced by Invitrogen), which is a TLR7/8 ligand, was examined. The specific examination procedures were as follows.
MG6 cells (mouse-derived microglial cell line) were cultured in a DMEM medium (+4% FBS) containing MHP1 or MHP4 (final concentration: 7.6, 15.3, or 30.5 μM) and R848 (final concentration: 1 μg/ml) or a DMEM medium (+4% FBS) containing R848 (final concentration: 1 μg/ml) alone for 24 hours by a standard method. After culturing, the concentrations of IL-6 and TNFα in the medium were measured by the ELISA method. In the Examples of the present application, the ELISA method was performed using a kit (Quantikine ELISA Mouse TNF-a or Quantikine ELISA Mouse IL-6, produced by R&D Systems).

[4] = test system: osteoclast precursor cells; assay: Osteoclast differentiation, Osteoclast Culture Kit V-2, TRAP staining (Example 6); assay type: cell-based; settings: 7 days
Experimental: Osteoclast Culture Kit V-2 (OSC33, produced by Cosmo Bio Co., Ltd.) was used. According to the manual of the kit, the culturing of osteoclast precursor cells was started in the presence of M-CSF (final concentration: 50 ng/ml) in the A and B groups, and in the presence of M-CSF (final concentration: 50 ng/ml) and MHP1 (final concentration: 30, 50, or 100 μg/ml) in the C and D groups. Thereafter, 24 hours to 7 days after the start of culturing, the A group was cultured in the presence of M-CSF (final concentration: 50 ng/ml), the B group was cultured in the presence of M-CSF (final concentration: 50 ng/ml) and RANKL protein (final concentration: 50 ng/ml), the C group was cultured in the presence of M-CSF (final concentration: 50 ng/ml) and MHP1 (final concentration: 30, 50, or 100 μg/ml), and the D group was cultured in the presence of M-CSF (final concentration: 50 ng/ml), RANKL protein (final concentration: 50 ng/ml), and MHP1 (final concentration: 30, 50, or 100 μg/ml). After culturing, the cells were subjected to TRAP staining and nuclear staining according to a standard method.

NFATc1 and ACP5 mRNA = assay: Osteoclast-related mRNA expression in RAW264.7 cells, real-time RT-PCR (Example 5); assay type: cell-based; settings: MHP1 100 μg/ml, collected after 3 days, FIG. 8A, 8B
Experimental: (§1) It has recently been reported that the administration of RANKL protein to mice induces the activation of osteoclasts. Accordingly, the influence of the RANKL peptide on osteoclasts was examined. The specific examination procedures were as follows.
(§2) MHP1 (final concentration: 100 μg/ml) or RANKL protein (final concentration: 10 ng/ml) was added to a medium (DMEM medium (+4% FBS)) in which RAW264.7 cells were cultured, and the cells were collected after 10 minutes and 3 days.
(§3) For the samples collected after 10 minutes, nuclear proteins of the cells were extracted using the Nuclear Extract Kit (Active Motif), and the degree of NFκB (p65) activation was measured by the TransAM NFkB p65 Kit (Active Motif). On the other hand, for the samples collected after 3 days, the mRNA expression levels of NFATc1 and ACP5 were analyzed by real-time RT-PCR.

[5] = test system: psoriatic symptoms caused by the administration of imiquimod (IMQ); assay: Imiquimod-induced psoriatic symptoms in mice, MHP1 aqueous solution (Example 1); assay type: in vivo; settings: MHP1 aqueous solution 200 μg/100 μL per mouse applied to back and ear every day; 5% imiquimod; BALB/c female mice; FIGS. 2 to 4
Experimental: As test animals, BALB/c 6-week-old female mice whose back hair was partially removed were prepared. 5% imiquimod (IMQ) was applied to the hair-removed portion in the back and ear of each mouse (62.5 mg per mouse) (day 0 (0 d)). One day later, (1) an MHP1 aqueous solution (200 μg/100 μL per mouse, n=2) or dH2O (control, n=2) was individually applied to the back and ear, followed by the application of (2) 5% imiquimod (IMQ) (62.5 mg per mouse (day 1 (1 d)). Thereafter, items (1) and (2) above were applied every day for 5 days (day 2 to 6 (2 d to 6 d)).
The degree of white scaling in the back was quantified in accordance with the description of the document (van der Fits, L. et al. Imiquimod-induced psoriasis-like skin inflammation in mice is mediated via the IL-23/IL-17 axis. J. Immunol. 182, 5836-45 (2009)) (evaluation criteria: none (0), mild (1), moderate (2), severe (3), and very severe (4)).
Additionally, the ear thickness was measured.

NFκB (p65) = NFκB (p65) activation in RAW264.7 cells, TransAM NFkB p65 Kit (Example 5); assay type: cell-based; settings: MHP1 100 μg/ml, collected after 10 minutes, FIG. 8C
Experimental: as §1, §2, §3

MG6 cells = assay: Stability of RANKL peptide: cytokine secretion inhibition in LPS-stimulated MG6 cells after storage (Example 7); assay type: cell-based, mouse
Experimental: The stability of the RANKL peptide was examined. The specific examination procedures were as follows.
MHP1 was dissolved in water to a concentration of 2 mg/ml, and stored at 4° C. for 208 days. Thereafter, MG6 cells (mouse-derived microglial cell line) were cultured in a DMEM medium (+4% FBS) containing MHP1 (final concentration: 100 μg/ml) and LPS (final concentration: 2 ng/ml) for 24 hours by a standard method. After culturing, the concentrations of IL-6 and TNFα in the medium were measured by the ELISA method.

Sequence | TLR7/8 signal suppression effects, MHP1 compared with hMHP4 [1] | TLR7/8 signals [1] | increase in the amount of IL-6 secretion by R848 [1] | psoriasis symptoms (back photographs, degree of redness, white scaling, skin thickening) [2] | increase in the amount of IL-6 secretion by R848 ([3]; MHP1 30.5 μM, 24 hours, ELISA) | TLR7/8 signals [3] | differentiation of osteoclasts when MHP1 was added (without RANKL protein) ([4]; M-CSF 50 ng/ml and MHP1 30, 50 or 100 μg/ml, TRAP and nuclear staining, FIG. 9 (b)) | differentiation of osteoclasts promoted by RANKL ([4]; M-CSF 50 ng/ml, RANKL protein 50 ng/ml and MHP1 30, 50 or 100 μg/ml, TRAP staining, FIG. 9 (a)) | expression of osteoclast-related mRNA (NFATc1, ACP5) (NFATc1 and ACP5 mRNA) | psoriatic symptoms (back photographs, degree of white scaling, ear thickness) [5] | NFκB (p65) activation (NFκB (p65)) | increase in the amount of TNFα secretion by R848 ([3]; MHP1 30.5 μM, 24 hours, ELISA, FIG. 5b) | stability (MG6 cells; 2 mg/ml in water, 4° C., 208 days) | proinflammatory cytokine (IL-6, TNFα) secretion-inhibiting effect after long-term storage (MG6 cells; MHP1 2 mg/ml in water stored at 4° C. for 208 days, then 100 μg/ml with LPS 2 ng/ml, MG6 cells, 24 hours, FIG. 10)
LMVYVTKTSIKIPSS (listed as Homo sapiens) [hMHP4] | similar | suppressed the TLR7/8 signals | suppressed |  |  |  |  |  |  |  |  |  |  | 
LMVYVVKTSIKIPSS (listed as Mus musculus) [MHP4] |  |  |  | improved psoriasis symptoms | suppressed | suppressed the TLR7/8 signals |  |  |  |  |  |  |  | 
LMVYVVKTSIKIPSSHNLMKGGSTKNWSGN (listed as Mus musculus) [MHP1] | similar | suppressed the TLR7/8 signals | suppressed |  | suppressed | suppressed the TLR7/8 signals | did not occur | inhibited | did not promote | improved psoriatic symptoms | slightly activated | suppressed | high | in the same manner as MHP1 before storage
